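Five compound concentrations were applied to cells in 96-well plates for 48 hours; endpoints were derived by simple linear interpolation of the resulting dose-response curve. GI50 is the concentration that inhibits growth by half.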 The source made the active and inactive calls. Cut-off read from the data, not from the text of the source: active = GI50 up to about 1.1 µM and inactive = higher. Square brackets hold non-standard residues; d marks the D form. Peptide text beside a SMILES is read from it. * marks the point of attachment. X26 = COC1=CC(=O)N(C(=O)[C@@H](O*)C(C)C)[C@H]1Cc1ccccc1; NMeV = CN[C@H](C(=O)O)C(C)C; Hexanoyl = CCCCCC(=O)*
How the values were obtained:
Test in all cases: NCI tumour cell line growth inhibition, 48 h
A549 = test system: A549
ACHN = test system: ACHN
COLO 205 = test system: COLO 205
DU-145 = test system: DU-145
HOP-92 = test system: HOP-92
Hs-578T = test system: Hs-578T
M14 = test system: M14
NCI-H226 = test system: NCI-H226
NCI-H460 = test system: NCI-H460
OVCAR-4 = test system: OVCAR-4
PC-3 = test system: PC-3
SF-539 = test system: SF-539
SK-MEL-5 = test system: SK-MEL-5
SNB-19 = test system: SNB-19
SNB-75 = test system: SNB-75
T47D = test system: T47D
UACC-257 = test system: UACC-257
UO-31 = test system: UO-31

Measured: GI50

CCCCCNC(=O)OC1CCn2c1nc1c2C(=O)C(C)=C(N2CC2)C1=O (centres undefined)
active: A549 0.526 µM | ACHN 0.548 µM | DU-145 0.351 µM | NCI-H460 0.218 µM | PC-3 1.05 µM | SK-MEL-5 0.568 µM
inactive: COLO 205 1.41 µM | HOP-92 21.4 µM | Hs-578T 2.32 µM | M14 1.45 µM | NCI-H226 2 µM | OVCAR-4 1.3 µM | SF-539 2 µM | SNB-19 2.9 µM | SNB-75 1.22 µM | T47D 3.23 µM | UACC-257 1.67 µM | UO-31 1.83 µM

CC1=N[C@@](C)(C2CC3C=CC2C3=O)COC1=O (some centres undefined)
inactive: A549 > 100 µM | ACHN > 100 µM | COLO 205 > 100 µM | DU-145 > 100 µM | HOP-92 > 100 µM | Hs-578T > 100 µM | M14 > 100 µM | NCI-H226 > 100 µM | NCI-H460 > 100 µM | OVCAR-4 > 100 µM | PC-3 > 100 µM | SF-539 > 100 µM | SK-MEL-5 > 100 µM | SNB-19 > 100 µM | SNB-75 > 100 µM | T47D > 100 µM | UACC-257 > 100 µM | UO-31 > 100 µM

Nc1nc(Cl)nc2c1ncn2C1CCC(COP(=O)(O)OP(=O)(O)OP(=O)(O)O)O1 (centres undefined)
inactive: A549 32.7 µM | ACHN 25.2 µM | COLO 205 20.5 µM | DU-145 23.3 µM | HOP-92 23.7 µM | Hs-578T 29.7 µM | M14 16.8 µM | NCI-H226 27.7 µM | NCI-H460 41.6 µM | OVCAR-4 24.9 µM | PC-3 23.1 µM | SF-539 67.3 µM | SNB-19 > 100 µM | SNB-75 34.4 µM | T47D 23.8 µM | UACC-257 41.6 µM | UO-31 12.7 µM

COc1cc2c(c(O)c1OC)C(=O)C(Cc1ccc(O)cc1)CO2 (centres undefined)
inactive: A549 23.8 µM | ACHN 42.5 µM | COLO 205 73.6 µM | DU-145 39.8 µM | HOP-92 30.3 µM | Hs-578T 14.4 µM | M14 23.1 µM | NCI-H226 37.9 µM | NCI-H460 32.7 µM | OVCAR-4 44.7 µM | PC-3 33.2 µM | SF-539 16.1 µM | SK-MEL-5 26.5 µM | SNB-19 20.3 µM | SNB-75 18.4 µM | T47D 29 µM | UACC-257 54.2 µM | UO-31 40.6 µM

C=C(Br)CNC(=O)Nc1ccc(Cl)c(Cl)c1
inactive: A549 21.5 µM | ACHN 17.5 µM | COLO 205 16.9 µM | DU-145 23.6 µM | HOP-92 19.9 µM | Hs-578T 22.7 µM | M14 22.2 µM | NCI-H226 25.4 µM | NCI-H460 26.5 µM | OVCAR-4 29.5 µM | PC-3 11.2 µM | SF-539 19.3 µM | SK-MEL-5 13.8 µM | SNB-19 21.7 µM | SNB-75 21.3 µM | T47D 17.9 µM | UO-31 11.4 µM

C=CCOC(=O)N1[C@H]2C#C/C=C\C#C[C@]3(O)C(=O)C[C@H](C)[C@]24O[C@]43C2=CC(=O)C=CC21OC (some centres undefined)
inactive: A549 23.2 µM | ACHN 20.2 µM | COLO 205 13.6 µM | DU-145 38.7 µM | HOP-92 38 µM | Hs-578T 49 µM | M14 20.4 µM | NCI-H226 30.5 µM | NCI-H460 13.9 µM | OVCAR-4 26.4 µM | PC-3 30.6 µM | SF-539 20.6 µM | SNB-19 38.3 µM | SNB-75 35.2 µM | T47D 64.9 µM | UACC-257 19.4 µM | UO-31 32 µM

CC(=O)OCC1OC(NC(=S)Nn2c(-c3ccccc3)nc3ccccc3c2=O)C(OC(C)=O)C(OC(C)=O)C1OC(C)=O (centres undefined)
inactive: A549 > 100 µM | ACHN > 100 µM | COLO 205 > 100 µM | DU-145 > 100 µM | HOP-92 38.4 µM | Hs-578T 78.7 µM | M14 62.7 µM | NCI-H226 14.7 µM | NCI-H460 > 100 µM | PC-3 > 100 µM | SF-539 37.8 µM | SK-MEL-5 35.8 µM | SNB-19 > 100 µM | SNB-75 96.8 µM | T47D 19.4 µM | UACC-257 > 100 µM | UO-31 > 100 µM

CC1CC2OC(=N)C1(C#N)C2(C#N)C#N (centres undefined)
inactive: A549 > 100 µM | ACHN 31.4 µM | COLO 205 10.9 µM | DU-145 56.6 µM | HOP-92 17.9 µM | Hs-578T 33.8 µM | M14 29.6 µM | NCI-H226 38.4 µM | PC-3 25.7 µM | SF-539 22.5 µM | SK-MEL-5 10.4 µM | SNB-19 34.8 µM | SNB-75 11.5 µM | T47D 25.9 µM | UACC-257 18.8 µM | UO-31 24.5 µM

O=C(COc1ccc(OCC(=O)N2C(=O)CC/C2=N\c2ccc(Cl)cc2)cc1)N1C(=O)CS/C1=N\c1ccc(Cl)cc1
inactive: A549 26.4 µM | ACHN 49.8 µM | COLO 205 47.9 µM | DU-145 > 100 µM | HOP-92 > 100 µM | Hs-578T > 100 µM | M14 89.7 µM | NCI-H226 > 100 µM | NCI-H460 72.6 µM | OVCAR-4 75.3 µM | PC-3 47.1 µM | SK-MEL-5 76 µM | SNB-19 63.2 µM | SNB-75 18.5 µM | T47D 14.2 µM | UACC-257 56 µM | UO-31 37.2 µM

C=C1C(=O)OC2C1C(OC(=O)/C(C)=C/C)CC1(C)C(=O)CCC(=C)C21 (centres undefined)
inactive: A549 19.2 µM | ACHN 2.4 µM | COLO 205 5.33 µM | DU-145 8.07 µM | HOP-92 1.62 µM | Hs-578T 27.8 µM | M14 5.26 µM | NCI-H226 20.7 µM | NCI-H460 13.3 µM | OVCAR-4 11 µM | PC-3 11 µM | SF-539 11.3 µM | SK-MEL-5 7.64 µM | SNB-75 15.9 µM | T47D 13.1 µM | UACC-257 11.2 µM | UO-31 6.55 µM

CCCCCC(=O)N[C@H](C(=O)N[C@H](C(=O)N(C)[C@H](C(=O)N1CCC[C@H]1C(=O)N1CCC[C@H]1C(=O)O[C@H](C(=O)N1C(=O)C=C(OC)[C@@H]1Cc1ccccc1)C(C)C)C(C)C)C(C)C)C(C)C (Hexanoyl-VV[NMeV]PP-X26)
inactive: ACHN > 100 µM | COLO 205 > 100 µM | DU-145 > 100 µM | HOP-92 36.2 µM | Hs-578T 68.2 µM | NCI-H226 > 100 µM | NCI-H460 > 100 µM | OVCAR-4 > 100 µM | PC-3 25.2 µM | SF-539 36.9 µM | SNB-75 19 µM | T47D > 100 µM | UACC-257 87.7 µM | UO-31 40 µM

OCC1OC(n2cnc3c(Cl)nc(Nc4ccc(Cl)c(Cl)c4)nc32)CC1O (centres undefined)
inactive: A549 14.2 µM | ACHN 8.69 µM | COLO 205 11 µM | DU-145 11.6 µM | HOP-92 8.18 µM | Hs-578T 13.2 µM | M14 10.7 µM | NCI-H226 8.15 µM | NCI-H460 7.91 µM | OVCAR-4 10.1 µM | PC-3 9.57 µM | SK-MEL-5 8.34 µM | SNB-19 20.5 µM | SNB-75 15.7 µM | T47D 13.3 µM | UACC-257 9.48 µM | UO-31 11.6 µM

COC(CC1(CCNc2ccccc2)C(=O)N(COCC[Si](C)(C)C)c2ccccc21)OC (centres undefined)
inactive: A549 15.5 µM | ACHN 17.9 µM | COLO 205 2.69 µM | DU-145 23.6 µM | HOP-92 13.8 µM | Hs-578T 18 µM | M14 2.51 µM | NCI-H226 6 µM | NCI-H460 15 µM | OVCAR-4 13.6 µM | PC-3 11.8 µM | SK-MEL-5 4.97 µM | SNB-19 15.5 µM | SNB-75 4.46 µM | T47D 20.3 µM | UACC-257 11.7 µM | UO-31 13.9 µM

N#Cc1ccc(/N=N/N2CCCC2)cc1
inactive: ACHN > 100 µM | COLO 205 > 100 µM | DU-145 20.8 µM | HOP-92 > 100 µM | Hs-578T > 100 µM | M14 > 100 µM | NCI-H226 > 100 µM | NCI-H460 > 100 µM | OVCAR-4 98.9 µM | PC-3 83.8 µM | SF-539 > 100 µM | SK-MEL-5 86.3 µM | SNB-19 > 100 µM | SNB-75 > 100 µM | T47D > 100 µM | UACC-257 > 100 µM | UO-31 69.8 µM

O=C1N/C(=N/N=C/C(O)C(O)C(O)C(O)CO)N/C1=C\c1ccco1 (centres undefined)
inactive: A549 > 100 µM | ACHN > 100 µM | COLO 205 > 100 µM | DU-145 > 100 µM | HOP-92 > 100 µM | Hs-578T > 100 µM | M14 > 100 µM | NCI-H226 > 100 µM | NCI-H460 > 100 µM | OVCAR-4 > 100 µM | PC-3 32.3 µM | SF-539 > 100 µM | SK-MEL-5 > 100 µM | SNB-19 > 100 µM | SNB-75 > 100 µM | T47D > 100 µM | UACC-257 > 100 µM

COc1cccc2c(=O)oc(-c3ccccc3C)nc12
inactive: A549 38.2 µM | ACHN 43 µM | COLO 205 39.8 µM | DU-145 61 µM | HOP-92 > 100 µM | Hs-578T 43.5 µM | NCI-H226 19.5 µM | NCI-H460 56.9 µM | OVCAR-4 22.7 µM | PC-3 35.7 µM | SF-539 25.5 µM | SK-MEL-5 23 µM | SNB-75 > 100 µM | T47D > 100 µM | UO-31 58.3 µM
